Measured values published in ChEMBL document CHEMBL1131862, “Synthesis and anti-HIV activity of arylpiperazinyl fluoroquinolones: a new class of anti-HIV agents” (Bioorg Med Chem Lett, 1999).
pIC50: −log10 of the molar value.

Experiments:
[1] = test system: Human immunodeficiency virus 1; experiment: Anti-HIV activity against HIV-1 IIIB chronically infected Molt-4 cells; type: functional, organism-based; settings: Human immunodeficiency virus 1, MOLT-4
[2] = test system: Human immunodeficiency virus 1; experiment: Cytotoxicity to HIV-1 IIIB chronically infected Molt-4 cells assayed using tetrazolium based colorimetric assay; type: functional; settings: Human immunodeficiency virus 1, MOLT-4
MOLT-4 = experiment: Anti-HIV activity against HIV-1 IIIB chronically infected Molt-4 cells; Not active; type: functional, cell-based, Homo sapiens

pIC50 [1]	IC50 (MOLT-4)	SMILES	CC50 [2]
< 4.22		O=C(O)c1cn(C2CC2)c2c(OC(F)F)c(N3CCNCC3)c(F)cc2c1=O	> 60 µM
6.59		COc1ccccc1N1CCN(c2c(F)cc3c(=O)c(C(=O)O)cn(CCO)c3c2OC(F)F)CC1	26 µM
7.00		COc1ccccc1N1CCN(c2c(F)cc3c(=O)c(C(=O)O)cn(C(C)C)c3c2OC(F)F)CC1	8.9 µM
7.03		CCn1cc(C(=O)O)c(=O)c2cc(F)c(N3CCN(c4ccccc4OC)CC3)c(OC(F)F)c21	13 µM
6.30		CNn1cc(C(=O)O)c(=O)c2cc(F)c(N3CCN(c4ncccn4)CC3)c(OC(F)F)c21	> 60 µM
6.64		CC(C)n1cc(C(=O)O)c(=O)c2cc(F)c(N3CCN(c4ncccn4)CC3)c(OC(F)F)c21	31 µM
5.43		CC1COc2c(N3CCN(c4ccccn4)CC3)c(F)cc3c(=O)c(C(=O)O)cn1c23 (stereo not given)	39 µM
6.60		O=C(O)c1cn(C2CC2)c2c(OC(F)F)c(N3CCN(c4ccccn4)CC3)c(F)cc2c1=O	15 µM
5.25		COc1ccccc1N1CCN(c2c(F)cc3c(=O)c(C(=O)O)cn(CCN(C)C)c3c2OC(F)F)CC1	> 55 µM
6.85		Cn1cc(C(=O)O)c(=O)c2cc(F)c(N3CCN(c4ncccn4)CC3)c(OC(F)F)c21	38 µM
6.15		COc1cccc(N2CCN(c3c(F)cc4c(=O)c(C(=O)O)cn(C5CC5)c4c3OC(F)F)CC2)c1	22 µM
6.01		O=C(O)c1cn(C2CC2)c2c(OC(F)F)c(N3CCN(c4ncccn4)CC3)c(F)cc2c1=O	> 40 µM
	Not Active	O=C(O)c1cn(C2CC2)c2c(OC(F)F)c(N3CCN(Cc4ccccc4)CC3)c(F)cc2c1=O	23 µM
7.20		O=C(O)c1cn(C2CC2)c2c(OC(F)F)c(N3CCN(c4ccccc4)CC3)c(F)cc2c1=O	8.4 µM
6.85		COc1ccccc1N1CCN(c2c(F)cc3c(=O)c(C(=O)O)cn(C)c3c2OC(F)F)CC1	13 µM
4.30		O=C(O)c1cn(C2CC2)c2c(F)c(N3CCN(c4ccccn4)CC3)c(F)cc2c1=O	> 50 µM
6.46		CNn1cc(C(=O)O)c(=O)c2cc(F)c(N3CCN(c4ccccc4OC)CC3)c(OC(F)F)c21	19 µM
7.23		O=C(O)c1cn(C2CC2)c2c(OC(F)F)c(N3CCN(c4ccc(F)cc4)CC3)c(F)cc2c1=O	5.7 µM
6.57		COc1ccccc1N1CCN(c2c(F)cc3c(=O)c(C(=O)O)cn(CCF)c3c2OC(F)F)CC1	22 µM
< 4.22		CN1CCN(c2c(F)cc3c(=O)c(C(=O)O)cn(C4CC4)c3c2OC(F)F)CC1	> 60 µM
6.22		COc1ccc(N2CCN(c3c(F)cc4c(=O)c(C(=O)O)cn(C5CC5)c4c3OC(F)F)CC2)cc1	17 µM
6.10		O=C(O)c1cn(CCO)c2c(OC(F)F)c(N3CCN(c4ncccn4)CC3)c(F)cc2c1=O	> 60 µM
6.32		O=C(O)c1cn(C2CC2)c2c(OC(F)F)c(N3CCN(c4ccc(Cl)cc4)CC3)c(F)cc2c1=O	5.8 µM
< 4.26		COc1ccccc1N1CCN(c2c(F)cc3c(=O)c(C(=O)O)cn(CC(=O)O)c3c2OC(F)F)CC1	> 55 µM
5.74		COc1c(N2CCN(c3ccccn3)CC2)c(F)cc2c(=O)c(C(=O)O)cn(C3CC3)c12	26 µM
7.00		COc1ccccc1N1CCN(c2c(F)cc3c(=O)c(C(=O)O)cn(CCOC(C)=O)c3c2OC(F)F)CC1	11 µM
5.77		O=C(O)c1cn2c3c(c(N4CCN(c5ccccn5)CC4)c(F)cc3c1=O)OCC2CF (stereo not given)	> 60 µM
6.96		COc1ccccc1N1CCN(c2c(F)cc3c(=O)c(C(=O)O)cn(C4CC4)c3c2OC(F)F)CC1	9.9 µM
6.03		O=C(O)c1cn(CCF)c2c(OC(F)F)c(N3CCN(c4ncccn4)CC3)c(F)cc2c1=O	> 60 µM
6.39		CCn1cc(C(=O)O)c(=O)c2cc(F)c(N3CCN(c4ncccn4)CC3)c(OC(F)F)c21	28 µM
